Test results taken from patent US9168259B2 (GRÜNENTHAL GMBH, priority 2010, dated 2015).

Molecular target: T1, KCNQ2/3 channels (Homo sapiens, UniProt O43525+O43526)
T1 construct: expressed in transfected cells
Experiment: Fluorescence assay using a voltage sensitive dye (fluorimetry)
Type: cell-based
Conditions: CHO-K1 cells expressing KCNQ2/3; for Emax: CHO-K1, plateau effect relative to saturated retigabine (50 μM) = 100%, negative values = antagonistic, read-out: Fluorimetry % efficacy (retigabine = 100%); for EC50: IC50 where % efficacy is negative, read-out: Fluorimetry EC50/IC50

T1 sequence (O43526 whole entry): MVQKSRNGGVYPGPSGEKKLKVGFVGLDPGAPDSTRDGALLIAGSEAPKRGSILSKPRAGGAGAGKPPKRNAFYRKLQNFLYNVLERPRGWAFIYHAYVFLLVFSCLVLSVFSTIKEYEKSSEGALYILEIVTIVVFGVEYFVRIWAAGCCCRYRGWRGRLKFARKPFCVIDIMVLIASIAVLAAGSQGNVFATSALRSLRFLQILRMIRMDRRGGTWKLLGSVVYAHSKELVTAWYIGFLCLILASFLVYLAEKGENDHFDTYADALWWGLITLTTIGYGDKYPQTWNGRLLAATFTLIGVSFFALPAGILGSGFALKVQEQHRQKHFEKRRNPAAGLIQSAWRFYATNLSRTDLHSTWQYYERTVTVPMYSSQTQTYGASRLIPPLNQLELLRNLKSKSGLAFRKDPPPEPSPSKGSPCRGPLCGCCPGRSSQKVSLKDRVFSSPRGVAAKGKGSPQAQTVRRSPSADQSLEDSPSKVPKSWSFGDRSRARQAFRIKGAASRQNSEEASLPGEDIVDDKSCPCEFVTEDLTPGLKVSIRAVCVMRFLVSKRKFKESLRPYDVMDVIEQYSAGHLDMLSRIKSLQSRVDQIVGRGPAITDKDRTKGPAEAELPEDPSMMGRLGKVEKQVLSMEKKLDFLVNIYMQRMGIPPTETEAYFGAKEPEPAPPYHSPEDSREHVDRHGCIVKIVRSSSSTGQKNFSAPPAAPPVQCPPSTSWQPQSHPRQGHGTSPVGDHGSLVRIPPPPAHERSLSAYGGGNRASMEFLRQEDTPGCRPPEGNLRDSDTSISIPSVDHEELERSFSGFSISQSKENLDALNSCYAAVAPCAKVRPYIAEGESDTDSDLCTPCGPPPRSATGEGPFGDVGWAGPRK
T1 sequence (O43525 whole entry): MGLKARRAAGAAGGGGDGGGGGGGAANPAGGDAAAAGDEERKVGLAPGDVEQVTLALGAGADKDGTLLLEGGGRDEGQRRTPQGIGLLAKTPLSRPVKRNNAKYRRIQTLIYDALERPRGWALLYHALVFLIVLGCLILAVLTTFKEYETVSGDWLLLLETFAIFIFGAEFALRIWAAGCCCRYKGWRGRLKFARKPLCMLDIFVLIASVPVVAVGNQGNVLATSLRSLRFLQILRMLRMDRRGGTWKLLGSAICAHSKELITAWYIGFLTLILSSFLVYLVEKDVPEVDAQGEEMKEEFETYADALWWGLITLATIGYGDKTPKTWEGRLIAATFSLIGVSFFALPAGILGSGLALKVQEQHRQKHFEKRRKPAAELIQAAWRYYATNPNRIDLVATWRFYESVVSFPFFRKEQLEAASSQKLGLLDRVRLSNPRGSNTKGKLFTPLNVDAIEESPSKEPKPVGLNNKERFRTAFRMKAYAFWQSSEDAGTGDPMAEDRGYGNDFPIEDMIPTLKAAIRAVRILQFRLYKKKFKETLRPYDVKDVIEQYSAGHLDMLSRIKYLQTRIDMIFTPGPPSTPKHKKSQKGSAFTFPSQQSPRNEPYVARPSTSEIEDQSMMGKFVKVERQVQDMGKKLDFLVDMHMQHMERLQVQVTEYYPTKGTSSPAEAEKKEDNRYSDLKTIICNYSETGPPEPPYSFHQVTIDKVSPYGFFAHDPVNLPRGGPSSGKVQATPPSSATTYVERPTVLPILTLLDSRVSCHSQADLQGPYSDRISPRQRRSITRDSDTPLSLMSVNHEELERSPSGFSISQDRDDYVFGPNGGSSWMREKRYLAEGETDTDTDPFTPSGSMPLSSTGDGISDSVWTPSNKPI

Emax [%]	EC50 [nM]	SMILES
188	50	CCSc1nc(N2CCOC[C@H]2C)cc(C)c1C(=O)NCc1cccc(F)c1 [Example 295, 2-Ethylsulfanyl-N-[(3-fluorophenyl)-methyl]-4-methyl-6-[(3R)-3-methyl-morpholin-4-yl]-pyridine-3-carboxylic acid amide]
222	189	CCSc1nc(N2CCOC[C@@H]2C)cc(C)c1C(=O)NCc1cccc(F)c1 [Example 296, 2-Ethylsulfanyl-N-[(3-fluorophenyl)-methyl]-4-methyl-6-[(3S)-3-methyl-morpholin-4-yl]-pyridine-3-carboxylic acid amide]
125	177	CCSc1nc(N(C)Cc2ccc(C(F)(F)F)cc2)cc(C)c1C(=O)NCc1cccc(F)c1 [Example 297, 2-Ethylsulfanyl-N-[(3-fluorophenyl)-methyl]-4-methyl-6-[methyl-[[4-(trifluoromethyl)-phenyl]-methyl]-amino]-pyridine-3-carboxylic acid amide]
127	4590	CCSc1nc(N2CCS(=O)(=O)CC2)cc(C)c1C(=O)NCc1cccc(F)c1 [Example 298, 6-(1,1-Dioxo-[1,4]thiazinan-4-yl)-2-ethylsulfanyl-N-[(3-fluorophenyl)-methyl]-4-methyl-pyridine-3-carboxylic acid amide]
104	920	CCSc1nc(N2CCC2)cc(C)c1C(=O)NCc1cccc(F)c1 [Example 299, 6-(Azetidin-1-yl)-2-ethylsulfanyl-N-[(3-fluorophenyl)-methyl]-4-methyl-pyridine-3-carboxylic acid amide]
132	767	CCSc1nc(N(C)C2CCOC2)cc(C)c1C(=O)NCc1cccc(F)c1 (stereo not shown) [Example 301, 2-Ethylsulfanyl-N-[(3-fluorophenyl)-methyl]-4-methyl-6-(methyl-tetrahydro-furan-3-yl-amino)-pyridine-3-carboxylic acid amide]
93	278	CCSc1nc(N(C)c2ccccc2)cc(C)c1C(=O)NCc1cccc(F)c1 [Example 302, 2-Ethylsulfanyl-N-[(3-fluorophenyl)-methyl]-4-methyl-6-(N-methyl-anilino)-pyridine-3-carboxylic acid amide]
54	1150	CCSc1nc(N2Cc3ccccc3C2)cc(C)c1C(=O)NCc1cccc(F)c1 [Example 303, 6-(2,3-Dihydro-1H-isoindol-2-yl)-2-ethylsulfanyl-N-[(3-fluorophenyl)-methyl]-4-methyl-pyridine-3-carboxylic acid amide]
81	348	CCSc1nc(N2CCCc3ccccc32)cc(C)c1C(=O)NCc1cccc(F)c1 [Example 304, 2-Ethylsulfanyl-N-[(3-fluorophenyl)-methyl]-4-methyl-6-(1,2,3,4-tetrahydro-quinolin-1-yl)-pyridine-3-carboxylic acid amide]
57		CCSc1nc(N2CCc3ccccc32)cc(C)c1C(=O)NCc1cccc(F)c1 [Example 305, 6-(2,3-Dihydro-1H-indol-1-yl)-2-ethylsulfanyl-N-[(3-fluorophenyl)-methyl]-4-methyl-pyridine-3-carboxylic acid amide]
33		CCSc1nc(N2CCOCC2)cc(C)c1C(=O)NCC(C)CC(C)(C)C (stereo not shown) [Example 306, 2-Ethylsulfanyl-4-methyl-6-morpholin-4-yl-N-(2,4,4-trimethyl-pentyl)-pyridine-3-carboxylic acid amide]
104	178	CCSc1nc(N(C)C2CCCC(OC)C2)cc(C)c1C(=O)NCc1cccc(F)c1 (stereo not shown) [Example 307, 2-Ethylsulfanyl-N-[(3-fluorophenyl)-methyl]-6-[(3-methoxy-cyclohexyl)-methyl-amino]-4-methyl-pyridine-3-carboxylic acid amide]
249	397	CCSc1nc(N2CCOCC2)cc(C)c1C(=O)NCCCC(C)(F)F [Example 308, N-(4,4-Difluoro-pentyl)-2-ethylsulfanyl-4-methyl-6-morpholin-4-yl-pyridine-3-carboxylic acid amide]
168	71	Cc1cc(N2CCOCC2)nc(C(C)C)c1C(=O)NCc1ccc(F)cc1 [Example 309, N-[(4-Fluorophenyl)-methyl]-2-isopropyl-4-methyl-6-morpholin-4-yl-pyridine-3-carboxylic acid amide]
174	43	Cc1cc(N2CCOCC2)nc(C(C)C)c1C(=O)NCc1ccc(F)c(F)c1 [Example 310, N-[(3,4-Difluoro-phenyl)-methyl]-2-isopropyl-4-methyl-6-morpholin-4-yl-pyridine-3-carboxylic acid amide]
146	45	Cc1cc(N2CCOCC2)nc(C(C)C)c1C(=O)NCc1ccc(C(F)(F)F)cc1 [Example 311, 2-Isopropyl-4-methyl-6-morpholin-4-yl-N-[[4-(trifluoromethyl)-phenyl]-methyl]pyridine-3-carboxylic acid amide]
135	6700	CCSc1nc(N2CCOCC2=O)cc(C)c1C(=O)NCc1cccc(F)c1 [Example 312, 2-Ethylsulfanyl-N-[(3-fluorophenyl)-methyl]-4-methyl-6-(3-oxo-morpholin-4-yl)-pyridine-3-carboxylic acid amide]

Emax [%]	EC50 [nM]	SMILES
229	62	CCCc1nc(N2CCOCC2)cc(C)c1C(=O)NCCCC(C)(C)C [Example 313, N-(4,4-Dimethyl-pentyl)-4-methyl-6-morpholin-4-yl-2-propyl-pyridine-3-carboxylic acid amide]
242	18	Cc1cc(N2CCOCC2)nc(C(C)C)c1C(=O)NCCCC(C)(C)C [Example 314, N-(4,4-Dimethyl-pentyl)-2-isopropyl-4-methyl-6-morpholin-4-yl-pyridine-3-carboxylic acid amide]
187	314	Cc1cc(N2CCOCC2)nc(C(C)C)c1C(=O)NCCCC(F)(F)F [Example 315, 2-Isopropyl-4-methyl-6-morpholin-4-yl-N-(4,4,4-trifluoro-butyl)-pyridine-3-carboxylic acid amide]
160	29	Cc1cc(N2CCOCC2)nc(C(C)C)c1C(=O)NCc1cc(F)cc(F)c1 [Example 316, N-[(3,5-Difluoro-phenyl)-methyl]-2-isopropyl-4-methyl-6-morpholin-4-yl-pyridine-3-carboxylic acid amide]
116	1120	Cc1cc(N2CCOCC2)nc(OC2COC2)c1C(=O)NCc1cccc(F)c1 [Example 317, N-[(3-Fluorophenyl)-methyl]-4-methyl-6-morpholin-4-yl-2-(oxetan-3-yloxy)-pyridine-3-carboxylic acid amide]
193	2880	CCSc1nc(N2CCOCC2)cc(C)c1C(=O)NCCCC(C)(C)OC [Example 318, 2-Ethylsulfanyl-N-(4-methoxy-4-methyl-pentyl)-4-methyl-6-morpholin-4-yl-pyridine-3-carboxylic acid amide]
233	348	CCSc1nc(N2CCOCC2)cc(C)c1C(=O)NCCCC(C)(C)F [Example 319, 2-Ethylsulfanyl-N-(4-fluoro-4-methyl-pentyl)-4-methyl-6-morpholin-4-yl-pyridine-3-carboxylic acid amide]
192	826	CCCc1nc(N2CCOCC2)cc(C)c1C(=O)NCCCC(F)(F)F [Example 320, 4-Methyl-6-morpholin-4-yl-2-propyl-N-(4,4,4-trifluoro-butyl)-pyridine-3-carboxylic acid amide]
162	83	CCCc1nc(N2CCOCC2)cc(C)c1C(=O)NCc1ccc(F)c(F)c1 [Example 321, N-[(3,4-Difluoro-phenyl)-methyl]-4-methyl-6-morpholin-4-yl-2-propyl-pyridine-3-carboxylic acid amide]
193	80	CCCc1nc(N2CCOCC2)cc(C)c1C(=O)NCc1cc(F)cc(F)c1 [Example 322, N-[(3,5-Difluoro-phenyl)-methyl]-4-methyl-6-morpholin-4-yl-2-propyl-pyridine-3-carboxylic acid amide]
130	102	CCCc1nc(N2CCOCC2)cc(C)c1C(=O)NCc1ccc(C(F)(F)F)cc1 [Example 323, 4-Methyl-6-morpholin-4-yl-2-propyl-N-[[4-(trifluoromethyl)-phenyl]-methyl]pyridine-3-carboxylic acid amide]
166	834	CCSc1nc(N2CCOCC2)cc(C)c1C(=O)NCC(=O)CC(C)(C)C [Example 324, N-(4,4-Dimethyl-2-oxo-pentyl)-2-ethylsulfanyl-4-methyl-6-morpholin-4-yl-pyridine-3-carboxylic acid amide]
153	282	CCSc1nc(N2CC3CCC(C2)O3)cc(C)c1C(=O)NCc1cccc(F)c1 [Example 325, 2-Ethylsulfanyl-N-[(3-fluorophenyl)-methyl]-4-methyl-6-(8-oxa-3-azabicyclo[3.2.1]octan-3-yl)-pyridine-3-carboxylic acid amide]
163	59	CCCc1nc(N2CCOCC2)cc(C)c1C(=O)NCc1ccc(Cl)cc1 [Example 326, N-[(4-Chlorophenyl)-methyl]-4-methyl-6-morpholin-4-yl-2-propyl-pyridine-3-carboxylic acid amide]
173	50	Cc1cc(N2CCOCC2)nc(C(C)C)c1C(=O)NCc1ccc(Cl)cc1 [Example 327, N-[(4-Chlorophenyl)-methyl]-2-isopropyl-4-methyl-6-morpholin-4-yl-pyridine-3-carboxylic acid amide]
230	44	Cc1cc(N2CCOCC2)nc(C2CC2)c1C(=O)NCCCC(C)(C)C [Example 328, 2-Cyclopropyl-N-(4,4-dimethyl-pentyl)-4-methyl-6-morpholin-4-yl-pyridine-3-carboxylic acid amide]
